Experimental findings from patent US20220003750A1, “FUNCTIONAL SCREEN FOR SMALL MOLECULE AND MONOCLONAL ANTIBODY DRUG SENSITIVITY IN MULTIPLE MYELOMA PATIENTS” (The Regents of the University of Colorado, a body corporate, priority 2018, published 2022) are described below.

Data set [1] deals with primary MM cells in patient bone marrow aspirate MNC cultures. The data set is described as follows: Myeloma drug sensitivity testing (My-DST): ex vivo 48 h culture of patient bone marrow MNCs, flow cytometry of surviving MM cells. The source says:
Extra bone marrow aspirate was collected from patients at University of Colorado Blood Cancer and Bone Marrow Transplant Program after informed consent. Samples from patients with multiple myeloma or smoldering myeloma were obtained from the hematologic malignancies tissue bank with protocol approval from the Western Institutional Review Board. MNCs were isolated from the samples using SepMate Ficoll-Plaque tubes (StemCell Technologies). Normal donor samples were purchased from AllCells. Selection of CD138^+ cells was performed with magnetic bead columns (Miltenyi), only where specifically noted.
(§1) De-identified primary myeloma samples were thawed and incubated with 100 μg DNase I (Sigma-Aldrich). Samples were washed twice with 10 mL Dulbecco's Phosphate Buffered Saline (DPBS) without calcium and magnesium. Cells were resuspended in RPMI1640 medium containing L-glutamine with 10% FBS and 100 U/mL penicillin and 100 μg/mL streptomycin (Thermo Fisher Scientific) and 2 ng/mL IL-6 (PeproTech) at 37° C. for 2 hours. Cells were then transferred to 96-well plates at 4.5×10^5 cells/mL (90,000 MNCs per well) and drug treated for 48 hours. PIs, IMiDs and Dex were purchased from Thermo Fisher. […] Stock drug solutions were prepared at 10 mM in DMSO and stored at −20° C. until use. Dara was obtained from University of Colorado Health Pharmacy. Clodronate-liposomes were purchased from Encapsula Nanosciences to block macrophage activity.
(§2) After 48-hour treatment primary samples were washed in 1× cold DPBS and re-suspended in BD Brilliant Stain Buffer (BD Biosciences) in a 96-well v-bottom plate. Cells were treated with FcR Blocking Reagent (Miltenyi Biotec) for 5 minutes and then surface stained with the antibodies anti-CD19-BV786, anti-CD45-BV510, monoclonal anti-CD38-BV421 or multi-epitope anti-CD38-FITC (ALPCO), anti-CD138-BV421 and anti-CD319-APC or anti-CD46 conjugated to Alexa647 with the Antibody Labeling Kit (In Vitrogen). Intracellular staining with anti-kappa-BV605 and anti-lambda-PE light chains was performed after paraformaldehyde fixation and permeabilization. All antibodies were purchased from BD Biosciences, except as noted. After staining, samples were washed with 100 μl DPBS containing 2% FBS (FACS buffer) and re-suspended in 250 μL. Viability staining was done using the LIVE/DEAD Fixable Near-IR Kit (Invitrogen, Carlsbad Calif.). Flow cytometry data was collected using a FACSCelesta (BD) equipped with a high throughput sampler (FITS). For each well a fixed volume of 175 μL was collected by the HTS. Data analysis was completed using FlowJo software.
To profile response to the agents commonly used in clinic, patient samples were initially screened with a panel including bortezomib (Bor), carfilzomib (Car), lenalidomide (Len), pomalidomide (Pom), Dex and Cy (tested as its active metabolite “4-HC”). MNCs are cultured for 48 hours, followed by flow cytometry to measure the surviving MM cell population. To accurately measure the MM cells on a sample-by-sample basis, cells were labeled for surface expression of CD138, CD38, CD45, CD19, CD319 and CD46. […] In parallel, intracellular flow cytometry for kappa and lambda was used to verify the clonality and individualize the MM population gating (FIG. 1F).
For rapid screening, single concentrations of each drug were sought that produce an expected decrease in MM cell viability by which to judge sensitivity versus resistance. This was started by establishing the dose response to each drug under the above conditions. Each condition was performed in triplicate and normalized compared to untreated control.
For orientation: In flow cytometry, cells or beads pass a laser one at a time.

Data set [2] deals with nonmalignant plasma cells from normal donor bone marrow. Description: My-DST quality control: normal donor bone marrow aspirates, nonmalignant plasma cells. Type of data set: cell-based, human. The settings on record: 48 h (FIG. 2B, 7F). From the text: Normal donor samples were purchased from AllCells.
PIs, IMiDs and Dex were purchased from Thermo Fisher. […] Dara was obtained from University of Colorado Health Pharmacy.
Data analysis was completed using FlowJo software.

Data set [3] deals with non-plasma cells (NPCs) negative for CD138 and CD38. The settings on record: 48 h; for viability of nonplasma cells (NPCs) in the cultures: patient samples (FIG. 2A, 7E). On the procedure:
as §1
as §2, with “software. […]” for “software.”

Setting [4] is: patient 614, with progression of disease (FIG. 5D).

Take `CC(C)C[C@H](NC(=O)[C@H](CCc1ccccc1)NC(=O)CN1CCOCC1)C(=O)N[C@@H](Cc1ccccc1)C(=O)N[C@@H](CC(C)C)C(=O)[C@@]1(C)CO1` [Car, carfilzomib]: in data set [1] (setting [4]), the “change of ex vivo drug sensitivity between biopsies at multiple time points” value (“change” for short) was “significantly increased drug resistance”.

For `CC(C)C[C@H](NC(=O)[C@H](Cc1ccccc1)NC(=O)c1cnccn1)B(O)O` [V, bortezomib], the “change” value in data set [1] (patient 646 (FIG. 5F)) is on record as “lost isolated bortezomib sensitivity”.

With daratumumab, the “viability of plasma cells from BM aspirates from normal donors” value in data set [2] was “did not substantially reduce viability”. Moreover, the “ex vivo response in samples from patients who had recently received Dara” value in data set [1] (20 nM, Dara-exposed patients (FIG. 6C)) is “ex vivo resistance was evident”. Moreover, the “ex vivo activity, newly diagnosed versus relapsed samples” value in data set [1] (20 nM, Dara-naïve patients (FIG. 6C)) is reported as “very similar activity”. In data set [1] (20 nM, P=0.003 (FIG. 6D)), the “ex vivo sensitivity in naïve patients compared to those with prior exposure” value is “significantly lower”. Moreover, in data set [1] (3/3 Dara-sensitive samples (FIG. 7D)), the “ex vivo activity after addition of clodronate-containing liposomes (macrophage deactivation)” value is on record as “partially blocked”. Further, in data set [1] (48 hours ex vivo culture), the “dose response of viable MM cells (FIG. 6A)” value was “dose dependent reduction in viable MM cells”. In data set [3], the “viability of nonplasma cells (NPCs) in the cultures” value is recorded as “did not affect the viability”.

For “IL-6: interleukin-6, cytokine added to the culture, 2 ng/mL”, the “MM cell viability loss in culture on IL-6 addition (FIG. 1B)” value in data set [1] (ex vivo supplementation of culture) was “attenuated MM cell viability loss in culture for some patient samples”.

Take `Nc1cccc2c1CN(C1CCC(=O)NC1=O)C2=O` (stereo not shown) [R, lenalidomide]: the “change” value in data set [1] (setting [4]) and in data set [1] (patient 700 (FIG. 5C)) was “significantly increased drug resistance” throughout.

For the molecule `O=P1(N(CCCl)CCCl)NCCCO1` (stereo not shown) [C, cyclophosphamide], the “viability of MM cells compared to untreated controls (FIG. 1G)” value in data set [1] (48 h, representative patient sample) is given as “reduced viable MM cells”. Moreover, the “EV sensitivity in samples from patients with prior clinical exposure versus naïve” value in data set [1] (FIGS. 8C-8F) was “unchanged”. Besides, the “change” value is “remained IMiD and cyclophosphamide resistant” in data set [1] (patient 634, multiple relapse time points (FIG. 5E)); “surprising re-sensitization” in data set [1] (patient 646 (FIG. 5F)); “increased sensitivity” in data set [1] (patient 700 (FIG. 5C)). Also, the “nonspecific cytotoxicity on the bulk MNC population (FIG. 1G)” value in data set [3] was “sometimes showed nonspecific cytotoxicity”. The “viability of nonplasma cells (NPCs) in the cultures” value in data set [3] is “occasional exception”.
